Data taken from paper PMC6858373 (Scientific Reports, 2019).
Where “and” joins values, the source holds several entries; their conditions need not be identical. Identical values can stand only once.

Columns and labels:
[1] = target: T1, FGF14:Nav1.6 C-tail complex (Homo sapiens, UniProt Q92915+Q9UQD0); test: Split-luciferase complementation assay (LCA) in Clone V double stable HEK293 cells; assay type: cell-based; conditions: CC_NCI screening; for Split Luciferase Assay % Lum Set 1 / Split Luciferase Assay %Lum Set 2: LCA luminescence, normalized to on-plate 0.3% DMSO controls (n=16 per plate); for Split Luciferase Assay % Lum Set 1 / Split Luciferase Assay Z-score Set 1: biological replicate Set 1; for Split Luciferase Assay %Lum Set 2 / Split Luciferase Assay Z-score Set 2: biological replicate Set 2; for Split Luciferase Assay Z-score Set 1 / Split Luciferase Assay Z-score Set 2: LCA, normalized to on-plate 0.3% DMSO controls; for Split Luciferase Assay %Lum Avg: average of Set 1 and Set 2, normalized to 0.3% DMSO controls
T1 construct: polymerase chain reaction (PCR) amplification of the FGF14 open reading frame (nt 1–855); C-terminal fragment of Nav1.6 (amino acids 1763–1976) fused with CD4ΔC-tail (amino acids 1–395); expressed in transfected cells
T1 sequence (Q92915 1-252 isoform Q92915-2): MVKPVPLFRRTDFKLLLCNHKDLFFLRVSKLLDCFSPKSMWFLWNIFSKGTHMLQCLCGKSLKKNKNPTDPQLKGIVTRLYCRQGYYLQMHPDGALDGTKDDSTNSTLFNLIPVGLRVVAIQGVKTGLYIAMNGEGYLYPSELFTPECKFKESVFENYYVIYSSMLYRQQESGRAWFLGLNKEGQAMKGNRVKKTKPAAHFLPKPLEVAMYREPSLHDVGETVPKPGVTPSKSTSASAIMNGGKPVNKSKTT
T1 sequence (Q9UQD0 1763-1976 limits assumed): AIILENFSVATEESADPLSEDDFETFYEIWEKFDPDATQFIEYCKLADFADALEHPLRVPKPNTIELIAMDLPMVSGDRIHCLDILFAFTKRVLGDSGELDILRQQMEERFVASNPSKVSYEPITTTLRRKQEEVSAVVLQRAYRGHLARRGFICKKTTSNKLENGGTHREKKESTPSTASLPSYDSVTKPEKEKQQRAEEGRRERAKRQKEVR

[2] = target: full-length P. pyralis luciferase (Photinus pyralis, UniProt P08659, K549A/L550V/N119G/N50D/S548I); assay type: cell-based; conditions: CC_NCI screening, normalized to on-plate 0.3% DMSO controls; for Luciferase Assay % Lum: full-length luciferase counter-screen luminescence; for Luciferase Assay Z-score: full-length luciferase counter-screen
full-length P. pyralis luciferase, sequence (P08659 whole entry N50D/N119G/S548I/K549A/L550V, looked up): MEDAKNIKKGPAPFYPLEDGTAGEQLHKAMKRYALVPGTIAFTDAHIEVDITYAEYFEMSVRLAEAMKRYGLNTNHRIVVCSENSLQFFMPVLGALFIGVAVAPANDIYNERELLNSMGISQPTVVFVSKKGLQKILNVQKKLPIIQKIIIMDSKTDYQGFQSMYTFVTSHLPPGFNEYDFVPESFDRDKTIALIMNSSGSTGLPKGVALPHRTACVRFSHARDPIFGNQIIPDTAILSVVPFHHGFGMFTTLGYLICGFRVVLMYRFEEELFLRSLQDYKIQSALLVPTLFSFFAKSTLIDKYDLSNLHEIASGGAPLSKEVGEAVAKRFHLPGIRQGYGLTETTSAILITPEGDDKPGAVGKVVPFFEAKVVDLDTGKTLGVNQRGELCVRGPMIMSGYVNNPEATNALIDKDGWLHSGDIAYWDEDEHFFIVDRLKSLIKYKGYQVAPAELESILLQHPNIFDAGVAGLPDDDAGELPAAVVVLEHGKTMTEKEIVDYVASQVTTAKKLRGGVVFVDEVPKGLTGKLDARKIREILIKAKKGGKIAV

Clone V cells = test: CellTiter Blue (CTB) cell viability counter-screen; conditions: CC_NCI screening, normalized to on-plate 0.3% DMSO controls; for Toxicity Assay % Fluor: CTB cell viability fluorescence; for Toxicity Assay Z-score: CTB cell viability

Compound | Split Luciferase Assay % Lum Set 1 [1] | Split Luciferase Assay %Lum Set 2 [1] | Split Luciferase Assay Z-score Set 1 [1] | Split Luciferase Assay Z-score Set 2 [1] | Split Luciferase Assay %Lum Avg [1] | Luciferase Assay % Lum [2] | Luciferase Assay Z-score [2] | Toxicity Assay % Fluor (Clone V cells) | Toxicity Assay Z-score (Clone V cells)
CN1CCN(CCOc2cc(OC3CCOCC3)c3c(Nc4c(Cl)ccc5c4OCO5)ncnc3c2)CC1 [SARACATINIB] | 85.12% | 98.83% | -1.20 | -0.10 | 91.97% | 107.97% | 1.02 | 108.09% | 1.13
Cn1cnc2c(F)c(Nc3ccc(Br)cc3Cl)c(C(=O)NOCCO)cc21 [AZD 6244] | 100.34% | 90.51% | 0.03 | -0.77 | 95.42% | 96.05% | -0.51 | 108.13% | 1.14
COc1cc2c(Nc3ccc(Br)cc3F)ncnc2cc1OCC1CCN(C)CC1 [Vandetanib] | 89.47% | 115.47% | -0.85 | 1.26 | 102.47% | 80.83% | -2.46 | 97.46% | -0.36
O=P(O)(O)C(O)(Cn1ccnc1)P(=O)(O)O [Zoledronic acid] | 100.34% | 119.64% | 0.03 | 1.60 | 109.99% | 94.25% | -0.74 | 89.11% | -1.52
Nc1cccc2c1CN(C1CCC(=O)NC1=O)C2=O (centres unmarked) [Lenalidomide] | 144.91% and 107.95% | 144.60% and 129.00% | 3.63 and 0.64 | 3.63 and 2.36 | 144.76% and 118.47% | 104.96% and 92.77% |  | 84.86% and 92.38% | 
CNC(=O)c1cc(Oc2ccc(NC(=O)Nc3ccc(Cl)c(C(F)(F)F)c3)c(F)c2)ccn1 [Regorafenib] | 43.81% | 47.85% | -4.54 | -4.24 | 45.83% | 83.68% | -2.09 | 88.66% | -1.59
Cc1ccc(NC(=O)c2ccc(CN3CCN(C)CC3)cc2)cc1Nc1nc(-c2cccnc2)cs1 [MASITINIB] | 5.76% | 16.64% | -7.62 | -6.78 | 11.20% | 52.92% | -6.03 | 86.99% | -1.82
O=C(c1cc(Cc2n[nH]c(=O)c3ccccc23)ccc1F)N1CCN(C(=O)C2CC2)CC1 [AZD 2281] | 117.73% | 92.59% | 1.43 | -0.60 | 105.16% | 105.07% | 0.65 | 93.24% | -0.94
O=C(CCCCCCC(=O)Nc1ccccc1)NO [Vorinostat] | 88.38% | 88.43% | -0.94 | -0.94 | 88.40% | 97.95% | -0.26 | 101.32% | 0.19
CN(N=O)C(=O)N[C@@H](C=O)[C@@H](O)[C@H](O)[C@H](O)CO [Streptozocin] | 130.78% | 124.84% | 2.49 | 2.02 | 127.81% | 99.54% | -0.06 | 96.94% | -0.43
CN(C)C/C=C/C(=O)Nc1cc2c(Nc3ccc(F)c(Cl)c3)ncnc2cc1O[C@H]1CCOC1 [Afatinib] | 72.08% | 61.38% | -2.26 | -3.14 | 66.73% | 73.64% | -3.38 | 82.04% | -2.51
Cn1nnc2c(C(N)=O)ncn2c1=O [Temozolomide] | 106.86% | 109.23% | 0.55 | 0.75 | 108.05% | 99.34% | -0.09 | 84.35% | -2.19
Cc1c(NC(=O)OC[C@@H]2COCCN2)cn2ncnc(Nc3ccc4c(cnn4Cc4cccc(F)c4)c3)c12 [BMS-599626] | 38.37% | 50.98% | -4.98 | -3.99 | 44.68% | 83.05% | -2.17 | 101.94% | 0.27
Cc1ccc(Nc2nccc(N(C)c3ccc4c(C)n(C)nc4c3)n2)cc1S(N)(=O)=O [PAZOPANIB] | 100.34% | 122.76% | 0.03 | 1.85 | 111.55% | 97.40% | -0.33 | 86.91% | -1.83
CCCS(=O)(=O)Nc1ccc(F)c(C(=O)c2c[nH]c3ncc(-c4ccc(Cl)cc4)cc23)c1F [PLX4032] | 51.42% | 47.85% | -3.93 | -4.24 | 49.64% | 83.18% | -2.15 | 81.90% | -2.53
C[C@@H](Oc1cc(-c2cnn(C3CCNCC3)c2)cnc1N)c1c(Cl)ccc(F)c1Cl [PF-2341066] | 59.03% | 48.89% | -3.31 | -4.16 | 53.96% |  |  | 82.92% | -2.39
